Molecular target: Casein kinase I isoform gamma-2 (Homo sapiens) (UniProt P78368)
Assay: PubChem AID 1671247
Conditions: Z'-LYTE FRET kinase activity assay

Chain of Casein kinase I isoform gamma-2 (Homo sapiens) (P78368 whole entry, looked up, canonical isoform): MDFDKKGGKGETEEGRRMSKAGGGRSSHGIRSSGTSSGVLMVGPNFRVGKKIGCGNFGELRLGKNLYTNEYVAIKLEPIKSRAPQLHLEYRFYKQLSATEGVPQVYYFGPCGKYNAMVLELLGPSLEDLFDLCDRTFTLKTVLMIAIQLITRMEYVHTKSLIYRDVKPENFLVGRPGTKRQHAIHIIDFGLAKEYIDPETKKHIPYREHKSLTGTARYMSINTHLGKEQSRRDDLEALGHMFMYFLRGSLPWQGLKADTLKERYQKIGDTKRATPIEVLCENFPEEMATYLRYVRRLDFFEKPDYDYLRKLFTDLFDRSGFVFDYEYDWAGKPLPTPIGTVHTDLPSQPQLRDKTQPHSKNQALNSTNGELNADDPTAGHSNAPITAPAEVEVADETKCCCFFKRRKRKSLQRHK

Question: Which IC50 does the source give for `Brc1c(Br)c(Br)c2n[nH]nc2c1Br` here?
Answer: 26.5 µM

— PubChem BioAssay AID1671247
